The text below walks through data of US6005007A, “Retinoids, methods for their production and use” (priority 1997, dated 1999).

What is called Kd is the equilibrium constant for the complex coming apart.

Molecules are shown by their SMILES.

The target in assay [1] is T1, RXRα (Homo sapiens, UniProt P19793).
T1 sequence (P19793 1-462): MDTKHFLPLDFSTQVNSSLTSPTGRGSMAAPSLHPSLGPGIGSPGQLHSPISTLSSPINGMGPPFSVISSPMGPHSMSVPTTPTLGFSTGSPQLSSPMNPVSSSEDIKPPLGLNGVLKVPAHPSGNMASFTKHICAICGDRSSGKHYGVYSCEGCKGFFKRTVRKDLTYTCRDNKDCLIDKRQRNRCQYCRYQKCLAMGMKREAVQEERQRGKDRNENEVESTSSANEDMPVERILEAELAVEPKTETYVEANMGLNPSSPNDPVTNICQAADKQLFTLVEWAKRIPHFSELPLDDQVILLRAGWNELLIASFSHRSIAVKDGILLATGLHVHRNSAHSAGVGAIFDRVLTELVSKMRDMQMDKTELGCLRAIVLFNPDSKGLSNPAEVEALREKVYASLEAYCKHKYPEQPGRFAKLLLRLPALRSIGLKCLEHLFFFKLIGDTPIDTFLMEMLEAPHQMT
In words: Co-transfection assay, RXRα agonist activity. In kind it is cell-based. Details: expressed in transfected cells; host or cells: CV-1 (African green monkey kidney fibroblasts). Conditions: CV-1 cells, luciferase reporter, read-out: RXRα Pot. Background: A reporter such as luciferase makes a cellular process visible.

The target in assay [2] is T2, RARγ (Homo sapiens, UniProt P13631).
T2 sequence (P13631 1-454): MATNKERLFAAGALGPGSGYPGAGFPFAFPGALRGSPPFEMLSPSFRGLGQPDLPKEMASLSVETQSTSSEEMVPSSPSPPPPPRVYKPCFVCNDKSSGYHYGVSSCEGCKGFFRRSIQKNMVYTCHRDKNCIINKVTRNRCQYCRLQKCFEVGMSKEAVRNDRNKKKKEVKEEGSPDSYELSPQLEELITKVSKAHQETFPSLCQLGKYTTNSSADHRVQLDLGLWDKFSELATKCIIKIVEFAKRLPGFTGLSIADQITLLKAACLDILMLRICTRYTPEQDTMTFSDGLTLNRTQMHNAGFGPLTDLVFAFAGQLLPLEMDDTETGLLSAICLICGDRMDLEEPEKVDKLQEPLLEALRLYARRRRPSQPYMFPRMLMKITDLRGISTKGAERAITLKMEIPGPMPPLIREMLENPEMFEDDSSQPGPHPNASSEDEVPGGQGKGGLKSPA
Kind of assay: Co-transfection assay, RARγ agonist activity. The format is cell-based. Details: expressed in transfected cells; host or cells: CV-1 (African green monkey kidney fibroblasts). The note with it: CV-1 cells, luciferase reporter, read-out: RARγ Pot.

Assay [3] concerns the target T3, RARα (Homo sapiens, UniProt P10276).
T3 sequence (P10276 1-462): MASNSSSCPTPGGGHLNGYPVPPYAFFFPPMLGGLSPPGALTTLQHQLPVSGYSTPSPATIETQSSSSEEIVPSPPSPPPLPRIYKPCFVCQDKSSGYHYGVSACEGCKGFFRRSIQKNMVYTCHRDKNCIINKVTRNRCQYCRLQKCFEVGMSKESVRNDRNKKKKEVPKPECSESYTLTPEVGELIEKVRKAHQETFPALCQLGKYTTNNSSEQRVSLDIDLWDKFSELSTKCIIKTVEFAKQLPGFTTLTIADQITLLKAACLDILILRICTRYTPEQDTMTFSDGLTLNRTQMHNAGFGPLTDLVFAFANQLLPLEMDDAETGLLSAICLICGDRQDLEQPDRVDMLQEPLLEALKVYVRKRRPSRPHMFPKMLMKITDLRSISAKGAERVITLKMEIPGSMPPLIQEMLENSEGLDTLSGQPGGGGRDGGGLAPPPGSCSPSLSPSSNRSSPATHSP
Kind of assay: Receptor binding, RARα. Conditions: tritiated retinoid competition.

Assay [4] has as its target T3, RARα. In words: Co-transfection assay, RARα agonist activity. In kind it is cell-based. Details: expressed in transfected cells; host or cells: CV-1 (African green monkey kidney fibroblasts). The note with it: CV-1 cells, luciferase reporter, read-out: RARα Pot.
The target in assay [5] is T4, RARβ (Homo sapiens, UniProt P10826).
T4 sequence (P10826 1-448 isoform P10826-2): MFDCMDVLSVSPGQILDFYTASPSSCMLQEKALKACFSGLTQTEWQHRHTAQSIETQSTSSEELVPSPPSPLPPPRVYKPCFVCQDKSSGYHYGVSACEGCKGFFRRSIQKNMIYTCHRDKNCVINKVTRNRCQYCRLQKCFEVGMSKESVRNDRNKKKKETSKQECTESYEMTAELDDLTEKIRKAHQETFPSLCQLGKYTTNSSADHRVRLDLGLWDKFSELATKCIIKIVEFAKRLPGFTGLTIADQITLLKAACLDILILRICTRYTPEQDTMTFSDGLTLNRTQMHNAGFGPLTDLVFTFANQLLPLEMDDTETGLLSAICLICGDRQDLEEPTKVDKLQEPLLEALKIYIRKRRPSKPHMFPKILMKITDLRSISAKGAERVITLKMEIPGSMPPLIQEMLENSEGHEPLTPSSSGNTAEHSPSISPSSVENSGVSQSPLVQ
Kind of assay: Co-transfection assay, RARβ agonist activity. In kind it is cell-based. Also noted: expressed in transfected cells; host or cells: CV-1 (African green monkey kidney fibroblasts). The note with it: CV-1 cells, luciferase reporter, read-out: RARβ Pot.

As to `CC(/C=C/CC1(c2ccc3c(c2)C(C)(C)CCC3(C)C)CC1)=C\C(=O)O` [Compound 101, (2E, 4E)-6-[1-(5,5,8,8-Tetramethyl-5,6,7,8-tetrahydronaphtha-len-2-yl)cyclopropanyl]-3-methyl hexadienoic acid], the EC50 worked out at 13 nM in assay [1], 0.024 µM in assay [2], 0.059 µM in assay [4] and 0.017 µM in assay [5]. This compound yielded a Kd in assay [3] of 644 nM.

`CC(/C=C/CC1(c2cc(C(C)(C)C)cc3c2CCC3(C)C)CC1)=C\C(=O)O` [Compound 107, (2E, 4E)-6-[1-(6-t-butyl-1,1-dimethyl-indan-4-yl)-cyclopropyl]-3-methyl hexadienoic acid]: the EC50 in assay [1] is 34 nM; in assay [2] it was above 10 µM; in assay [4], above 10 µM; in assay [5] it was above 10 µM. The same compound gave a Kd in assay [3] above 5000 nM.

In the case of `CC(/C=C/CC1(c2ccc3c(c2)C(C)(C)CCC3(C)C)CCCC1)=C\C(=O)O` [Compound 108, (2E, 4E)-6-[(5,5,8,8-Tetramethyl-5,6,7,8-tetrahydronaphtha-len-2-yl)cyclopentane-1-yl]-3-methyl hexadienoic acid], the EC50 was 63 nM in assay [1], above 10 µM in assay [2], above 10 µM in assay [4] and above 10 µM in assay [5]. Moreover, the dissociation constant Kd in assay [3] was above 5000 nM.
